Results reported in patent publication US20190100725A1, “CELL CULTURE MEDIUM AND CULTURE MEDIUM SUPPLEMENT” (Institute of Biophysics, Chinese Academy of Sciences, priority 2016, published 2019).

Assays:
Assay type in all cases: cell-based, human
[1] = test system: hPSC-derived ventricular-like cardiomyocytes; experiment: Perforated whole-cell patch clamp, evoked AP of ventricular-like cardiomyocytes paced at 1 Hz; conditions: for APA / APD50 / APD90 / MDP / dV/dT: evoked AP, 1 Hz, percentage of untreated cardiomyocytes, mean±SEM
Method: Perforated whole-cell recording was used for pharmacological tests.
Nifedipine (Sigma-Aldrich, N7634) was prepared in DMSO. […] Other chemicals were from Sigma-Aldrich.

hESC line H7 = experiment: Cardiac differentiation of hESC line H7, FACS of CTNT-positive cells and cardiomyocyte yield; conditions: for cardiac differentiation efficacy (in words): individual addition of the antioxidant to S12 basal medium
Method: (§1) For small molecule-induced cardiac differentiation, hESC line H7 or hiPSCs were digested with Versene solution into single cells and seeded on VTN-NC-coated, 24-well plates at a density of 2.5-3.0×10^5 cells/well. Y27632 (10 μM) was supplemented on the first day and withdrawn thereafter. Cultures were maintained in E8 medium for 2-3 days until they reached 90% confluence. To initiate cell differentiation (designated as day 0), the medium was changed to S12 medium without insulin. Cells were treated with 4-8 μM CHIR99021 (Tocris, 4423) for 1 day. Then, the medium was replaced with fresh medium without CHIR99021. At day 3, 5 μM IWR-1 (Sigma-Aldrich, 10161) was supplied with fresh medium for 2 days. From day 5, insulin-containing S12 medium was used. Thereafter, the medium was changed every other day (FIG. 1a).
(§2) Cardiomyocytes were digested into single cells with 0.25% trypsin-EDTA (Life Technology, 25200-072) at 37° C. for about 5 min, and washed with buffer B, which contains 0.5% bovine serum albumin (Sigma, A9418-50G) in phosphate-buffered saline (PBS). Then the cells were fixed with 4% paraformaldehyde at room temperature and washed with buffer A, which contains 0.5% bovine serum albumin and 0.1% saponin (Sigma-Aldrich, S7900) in PBS. The cells were then incubated with an anti-human CTNT primary antibody (R&D systems, MAB1874) for 40 min at 4° C. and washed with buffer A, followed by incubation with a goat anti-mouse FITC-conjugated secondary antibody (ZSGB-BIO, ZF-0312) for 40 min at 4° C. Data were collected on FACScalibur (Becton Dickinson) and analyzed with FlowJo software (Treestar).

hiPSC line XVF 4 [2] = experiment: Double immunofluorescence staining of MLC2V and CTNT in 60-day-old cultures
Method: Differentiated cultures were digested with 0.25% trypsin-EDTA, and the cells were plated on 0.1% gelatin-coated coverslips for 5 days to allow full attachment. The coverslips were washed with PBS and fixed in 4% paraformaldehyde for 20 min at 4° C. The fixed cells were then permeabilized with 0.1% Triton X-100 for 20 min at 4° C., and blocked with 10% goat serum (ZSGB-BIO, ZLI-9021) for 1 h at room temperature. Then, the cells were incubated overnight at 4° C. with the following primary antibodies: anti-human CTNT (R&D systems, MAB1874), mouse anti-human α-actinin (Sigma-Aldrich, A7811), mouse anti-human MHC (Abcam, ab15), goat anti-human α-SMA (Abcam, ab5694), mouse anti-human MLC2A (Synaptic Systems, 311011) and rabbit anti-human MLC2V (ProteinTech, 10906-1-AP). Goat anti-mouse 488- (ZSGB-BIO, ZF-0512) or 594-conjugated secondary antibody (ZSGB-BIO, ZF-0513), and goat anti-rabbit 488- (ZSGB-BIO, ZF-0511) or 594-conjugated secondary antibody (ZSGB-BIO, ZF-0516) were used as secondary antibodies. Nuclei were counterstained with 4′,6-diamidino-2-phenylindole (DAPI) (Sigma-Aldrich, D0542). Immunofluorescence images were visualized and recorded using an Olympus microscope system X51 or Olympus LSCM FV1000 (Olympus).

[3] = test system: hiPSC-derived cardiomyocytes; experiment: Whole-cell patch clamp classification of AP types in RA- and BMS493-treated cultures
Method: The dissociation method used has been described previously^9. Briefly, 25-30-day-old differentiated cardiomyocyte clusters were washed with a low Ca^2+ solution, and then incubated in 1 mg/mL collagenase II (Life Technology, 17101-015) dissolved in a low Ca^2+ solution for 30-40 min at 37° C. The isolated cells were suspended in S12 medium containing 10% FBS, transferred to 0.1% gelatin-coated glass coverslips, and then maintained in a 5% CO2 incubator at 37° C.
Action potential (AP) and ion channel activities, which are critical for normal functions of cardiomyocytes, were investigated using whole-cell patch clamp technology on single cardiomyocytes. The classification of nodal-, atrial- and ventricular-like APs was based on the AP properties. Particularly, nodal-like AP has a slower maximal upstroke velocity (dV/dt), smaller action potential amplitude (APA), depolarized maximum diastolic potential (MDP), and faster beating rate than those of atrial- and ventricular-like APs. An AP duration at 90%0, of repolarization (APD90) value of 150 ms was used to classify atrial- and ventricular-like APs, because of the significant plateau phase of ventricular AP^21, 22. […] The parameters of the three AP types recorded were also analyzed (FIG. 3c).

hiPSC lines = experiment: Cardiac differentiation of hiPSC lines in S12 medium, FACS of CTNT-positive cells; conditions: for percentage of CTNT-positive cells after glucose deprivation enrichment: 2 days of glucose deprivation (glucose replaced with DL-lactate); for percentage of CTNT-positive cells before glucose deprivation enrichment: hiPSC line XVF 4 in S12 medium, 1 μM, days 5-8
Method: as §1
(§3) For directed differentiation of atrial or ventricular myocytes, 1 μM RA (Sigma-Aldrich, R2625) or 1 μM BMS493 (Tocris, 3509) was added to the differentiating cultures during days 5-8 of differentiation as described previously^9.
as §2

hiPSC line XVF 4 [4] = experiment: QPCR of IRX4 and NR2F2 in RA- or BMS493-treated hiPSC cultures; conditions: 14-day-old cultures; BMS493-treated versus RA-treated
Method: as §3
Total RNA was isolated using RNeasy Plus Mini kit (Qiagen, 74134). One microgram of total RNA was reverse transcribed using the PrimeScript™ RT reagent kit with gDNA eraser (Takara, RR047A). RT-PCR was performed with 2×Taq Mix (CW-BIO, CW0682C) according to the manufacturer's instructions. PCR products were analyzed using 1.5% agarose gel electrophoresis. QPCR was performed in triplicate using the 2×QuantiFast SYBR Green I PCR Master Mix (Qiagen, 204057) on a Rotor Gene 6200 Real-Time PCR Machine (Corbett) with an annealing temperature of 60° C. The expression of each gene was normalized to GAPDH gene expression. The primer sequences are listed in Table 4 (primer sequences for RT-PCR) and Table 5 (primer sequences for QPCR).

| SMILES | APA ([1]; 1 nM) [%] | APD50 ([1]; 1 nM) [%] | APD90 ([1]; 1 nM) [%] | MDP ([1]; 1 nM) [%] | dV/dT ([1]; 1 nM) [%] | APA ([1]; 10 nM) [%] | APD50 ([1]; 10 nM) [%] | APD90 ([1]; 10 nM) [%] | MDP ([1]; 10 nM) [%] | dV/dT ([1]; 10 nM) [%] | APA ([1]; 100 nM) [%] | APD50 ([1]; 100 nM) [%] | APD90 ([1]; 100 nM) [%] | MDP ([1]; 100 nM) [%] | dV/dT ([1]; 100 nM) [%] | APA ([1]; 1000 nM) [%] | APD50 ([1]; 1000 nM) [%] | APD90 ([1]; 1000 nM) [%] | MDP ([1]; 1000 nM) [%] | cardiac differentiation efficacy (in words) (hESC line H7) | also measured |
| --- | --- | --- | --- | --- | --- | --- | --- | --- | --- | --- | --- | --- | --- | --- | --- | --- | --- | --- | --- | --- | --- |
| COC(=O)C1=C(C)NC(C)=C(C(=O)OC)C1c1ccccc1[N+](=O)[O-] [Nifedipine] | 96.7 ± 2.7 | 92.7 ± 2.1 | 94.6 ± 2.0 | 99.7 ± 2.7 | 90.6 ± 4.1 | 96.2 ± 0.7 | 70.1 ± 2.9 | 73.6±2.7 | 103.5 ± 1.1 | 96.4 ± 5.9 | 88.3 ± 2.4 | 55.3 ± 4.3 | 60.8±4.3 | 100.8 ± 2.9 | 86.1 ± 8.8 | 73.8 ± 4.4 | 36.0 ± 3.3 | 47.1±6.1 | 100.8 ± 3.1 | – | dV/dT ([1]; 1000 nM): 60.0 ± 11.3 % |
| O=C1O[C@H]([C@@H](O)CO)C(O)=C1O [L-ascorbic acid] | – | – | – | – | – | – | – | – | – | – | – | – | – | – | – | – | – | – | – | marginally improved | – |
| CC(=O)C(=O)[O-].[Na+] [sodium pyruvate] | – | – | – | – | – | – | – | – | – | – | – | – | – | – | – | – | – | – | – | marginally improved | – |
| CC1(C)CC=C(C#Cc2ccccc2)c2cc(/C=C/c3ccc(C(=O)O)cc3)ccc21 [BMS493] | – | – | – | – | – | – | – | – | – | – | – | – | – | – | – | – | – | – | – | – | MLC2V expression in cardiomyocytes (hiPSC line XVF 4 [2]): widely expressed; percentage of recorded APs that were ventricular-like [3]: 93.3%; percentage of CTNT-positive cells after glucose deprivation enrichment (hiPSC lines): 94.3%; percentage of CTNT-positive cells before glucose deprivation enrichment (hiPSC lines): 86.3%; expression level of ventricular-specific gene IRX4 (hiPSC line XVF 4 [4]): significantly higher |
| CC1=C(/C=C/C(C)=C/C=C/C(C)=C/C(=O)O)C(C)(C)CCC1 [RA, retinoic acid] | – | – | – | – | – | – | – | – | – | – | – | – | – | – | – | – | – | – | – | – | percentage of recorded APs that were atrial-like ([3]; 30-day-old cardiomyocytes, n=31): 90.3%; percentage of CTNT-positive cells after glucose deprivation enrichment (hiPSC lines): 95.7%; percentage of CTNT-positive cells before glucose deprivation enrichment (hiPSC lines): 85% |
| Cc1cccc(CCN2CCC(C(=O)c3ccc(NS(C)(=O)=O)cc3)CC2)n1 [E-4031] | 102.9 ± 1.1 | 103.8 ± 3.8 | 102.1 ± 3.1 | 101.9 ± 1.2 | 101.2 ± 8.0 | 103.8 ± 1.5 | 110.1 ± 5.4 | 112.1 ± 5.0 | 101.5 ± 1.7 | 112.4 ± 5.5 | 103.0 ± 2.3 | 144.0 ± 6.7 | 169.6±13.4 | 99.6 ± 2.9 | 111.4 ± 9.6 | 95.6 ± 4.0 | 151.1 ± 7.5 | 195.6±12.3 | 92.4 ± 2.8 | – | effects on the AP ([1]; 10 nM, 1 Hz stimulation): minor effects; dV/dT ([1]; 1000 nM): 95.6 ± 7.4%; AP duration ([1]; 1 Hz stimulation (0.1-0.3 nA), dose dependence): prolonged the AP duration in a dose-dependent manner; change in APA and dV/dt ([1]; 1 Hz stimulation, up to 1000 nM): no significant change |
| CC(C)NCC(O)c1ccc(O)c(O)c1 (stereo not drawn) [Isoproterenol] | 99.9 ± 1.7 | 99.1 ± 0.7 | 97.3 ± 1.7 | 101.2 ± 1.5 | 99.9 ± 3.0 | 101.7 ± 1.6 | 93.0 ± 1.6 | 92.0 ± 2.5 | 102.8 ± 2.3 | 108.1 ± 1.8 | 102.1 ± 2.5 | 90.7 ± 1.8 | 90.8 ± 1.8 | 104.8 ± 3.7 | 105.6 ± 2.5 | 99.0 ± 5.2 | 87.0 ± 1.6 | 87.3 ± 1.6 | 101.8 ± 5.0 | – | dV/dT ([1]; 1000 nM): 105.3 ± 3.1%; APD90 (in words) ([1]; 1 Hz stimulation): minor reduction; effects on the parameters of AP ([1]; 1 Hz stimulation, except APD90): no significant effects |
| Cc1c(C)c2c(c(C)c1O)CCC(C)(C(=O)O)O2 (stereo not drawn) [trolox] | – | – | – | – | – | – | – | – | – | – | – | – | – | – | – | – | – | – | – | marginally improved | cardiac differentiation (FACS for CTNT positive cells) (hESC line H7; added to B27-based medium with six compounds removed, VTN-NC first three days): efficiently supported cardiac differentiation |
| CC(=O)N[C@@H](CS)C(=O)O [N-acetyl-L-cysteine] | – | – | – | – | – | – | – | – | – | – | – | – | – | – | – | – | – | – | – | marginally improved | – |
